Results: paper PMC6389848, “Characterization and structure‐guided engineering of the novel versatile terpene monooxygenase CYP109Q5 from Chondromyces apiculatus DSM436” (Microbial Biotechnology, 2018)

Experiments:
CYP109Q5 = biological target: T1, CYP109Q5 (Chondromyces apiculatus, UniProt A0A017T5A5); assay: in vitro biotransformation, HPLC; format: biochemical; conditions: redox partners CamA/CamB from Pseudomonas putida, NAD(P)H, 1 mM substrate, 2 μM P450, pH 7.0, 30°C
T1 construct: gene CAP_4855; native gene from genomic DNA in pBAD33, untagged, E. coli JW5510, partially purified by anion exchange
T1 sequence (A0A017T5A5 1-397): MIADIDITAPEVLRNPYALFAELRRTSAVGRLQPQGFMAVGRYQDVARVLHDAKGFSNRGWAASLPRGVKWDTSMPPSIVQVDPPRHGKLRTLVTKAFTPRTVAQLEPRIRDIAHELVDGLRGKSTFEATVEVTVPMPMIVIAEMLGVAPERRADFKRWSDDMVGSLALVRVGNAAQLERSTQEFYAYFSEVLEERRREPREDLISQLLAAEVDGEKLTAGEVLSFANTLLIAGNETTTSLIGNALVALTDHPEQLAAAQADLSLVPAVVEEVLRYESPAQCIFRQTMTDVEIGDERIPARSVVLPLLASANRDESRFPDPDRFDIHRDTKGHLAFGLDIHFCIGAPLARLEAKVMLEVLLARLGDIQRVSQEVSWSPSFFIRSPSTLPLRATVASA

CYP109B1 = biological target: T2, CYP109B1 (Bacillus subtilis, UniProt O34374); assay: in vitro biotransformation, GC-FID / GC-MS; format: biochemical; conditions: redox partners CamA/CamB from Pseudomonas putida, NAD(P)H, 1 mM substrate, 2 μM P450, pH 7.0, 30°C, 2 h
T2 construct: gene yjiB; purified enzyme; construct not described in main text
T2 sequence (O34374 1-396): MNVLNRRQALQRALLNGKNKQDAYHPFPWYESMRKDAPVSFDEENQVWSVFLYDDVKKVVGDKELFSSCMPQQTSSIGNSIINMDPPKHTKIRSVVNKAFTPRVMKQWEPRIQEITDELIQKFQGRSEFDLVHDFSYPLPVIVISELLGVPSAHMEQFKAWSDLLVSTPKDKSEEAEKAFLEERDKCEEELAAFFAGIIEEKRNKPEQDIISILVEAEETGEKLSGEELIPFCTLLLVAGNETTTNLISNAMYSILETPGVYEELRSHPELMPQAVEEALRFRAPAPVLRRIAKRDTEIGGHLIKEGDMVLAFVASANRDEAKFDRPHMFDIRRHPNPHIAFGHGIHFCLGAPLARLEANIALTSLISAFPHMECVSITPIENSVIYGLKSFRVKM

Row | SMILES | in vitro biotransformation, HPLC (CYP109Q5) | in vitro biotransformation, GC-FID / GC-MS (CYP109B1)
1 | O=C(O)Cc1ccccc1Nc1c(Cl)cccc1Cl [compound 26, diclofenac] | CYP109Q5 also exhibited activities towards diclofenac, mefenamic acid, nerolidol, camphor | –
2 | CC(=O)/C=C/C1=C(C)CCCC1(C)C [compound 1, β‐ionone] | – | The reference CYP109B1 hydroxylated β‐ionone exclusively in the allylic position
